Tests used:
[1] = test system: Salmonella enteric serovar typhi; assay: Agar disc diffusion antibacterial test; type: cell-based; settings: B; for zone of inhibition at 100 µM: 20 µL of 100 µM on 6 mm disc, Control (DMSO) = 6 mm, read-out: diameter of clear zone inhibition; for Inhibition %: (T–C)/T × 100
[2] = test system: Escherichia coli; assay: Agar disc diffusion antibacterial test; settings: for Inhibition %: A, (-) Escherichia coli, (T–C)/T × 100; for zone of inhibition at 100 µM: Escherichia coli, read-out: diameter of clear zone inhibition
[3] = test system: Chromo bacterium violaceum; assay: Agar disc diffusion antibacterial test; settings: for Inhibition %: C, (-) Chromo bacterium violaceum, (T–C)/T × 100; for zone of inhibition at 100 µM: read-out: diameter of clear zone inhibition
[4] = test system: Pseudomonas aeruginosa; assay: Agar disc diffusion antibacterial test; settings: for Inhibition %: D, (-) Pseudomonas aeruginosa, (T–C)/T × 100; for zone of inhibition at 100 µM: Pseudomonas aeruginosa, read-out: diameter of clear zone inhibition
[5] = test system: Shigella flexneri; assay: Agar disc diffusion antibacterial test; settings: for Inhibition %: E, (-) Shigella flexneri, (T–C)/T × 100; for zone of inhibition at 100 µM: Shigella flexneri, read-out: diameter of clear zone inhibition
[6] = test system: Staphylococcus Aureus; assay: Agar disc diffusion antibacterial test; settings: for Inhibition %: F, (+) Staphylococcus Aureus, (T–C)/T × 100; for zone of inhibition at 100 µM: Staphylococcus aureus, read-out: diameter of clear zone inhibition
[7] = test system: Bacillus cereus; assay: Agar disc diffusion antibacterial test; settings: for zone of inhibition at 100 µM: Bacillus cereus, read-out: diameter of clear zone inhibition; for Inhibition %: G, (+) Bacillus cereus, (T–C)/T × 100
[8] = test system: Aspergillus niger; assay: Agar disc diffusion antifungal test; settings: for Inhibition %: H, (T–C)/T × 100; for zone of inhibition at 100 µM: read-out: diameter of clear zone inhibition
[9] = test system: Candida albicans; assay: Agar disc diffusion antifungal test; settings: for Inhibition %: I, (T–C)/T × 100; for zone of inhibition at 100 µM: read-out: diameter of clear zone inhibition
[10] = test system: Mucor indicus; assay: Agar disc diffusion antifungal test; settings: for Inhibition %: J, (T–C)/T × 100; for zone of inhibition at 100 µM: read-out: diameter of clear zone inhibition
[11] = DPPH radical scavenging assay; type: biochemical; settings: 517 nm
[12] = Hydroxyl radical scavenging assay; type: biochemical; settings: 230 nm
[13] = Superoxide scavenging assay; type: biochemical; settings: 590 nm
[14] = Nitric oxide scavenging assay; type: biochemical; settings: 546 nm
[15] = test system: A549 Human lung cancer cell line; assay: MTT cell viability assay; type: cell-based; settings: 72 h exposure, at least three independent experiments
[16] = test system: HepG2 Liver cancer cell line; assay: MTT cell viability assay; type: cell-based; settings: 72 h exposure, at least three independent experiments
[17] = test system: MCF-7 Breast cancer cell line; assay: MTT cell viability assay; type: cell-based; settings: 72 h exposure, at least three independent experiments
[18] = test system: NHDF Normal human dermal fibroblasts cell line; assay: MTT cell viability assay; type: cell-based; settings: 72 h exposure
[19] = test system: CT-DNA; assay: DNA binding affinity by viscometric (hydrodynamic) titration; set-up: species or system calf; settings: for Relative Specific Viscosity (η/η0)^1/3: DNA 100 µM; for Slope of (η/η0)^1/3 vs [Compound]/[DNA]: linear plot, R 0.2–1.0
Protocol: The hydrodynamic titrations were carried out for all substances along with ethidium bromide (control) at 20, 40, 60, 80, 100 µM concentrations. In the Ostwald viscometer, these substances were also separately treated with the deoxyribonucleic acid solution (100 µM).
2.2.4. Viscometry-based titration for investigation of DNA binding
The Viscometry-based titration measurements were further supportive and delivered data about the binding modes between test compound and DNA base pairs. Nevertheless, it does not deliver definite confirmation for the exact mode of interactions. The experiment performed for all test compounds and ethidium bromide (control) at various concentrations 20, 40, 60, 80, 100 µM and each compound mixed with the CT-DNA solution (100 µM) in the Ostwald viscometer. With an accuracy of 0.01 seconds, a digital stopwatch was used to measure the average flow time. Due to the enhancement of the DNA's overall contour length during the separation of base pairs at intercalation sites, the classical intercalative mode […]
Generally, the compounds may result in less positive/negative or no viscosity change if they bind with DNA base pairs via […]
major or minor grooves [ 26]. […]
compounds via intercalation.

Compound `NCC[C@H](O)C(=O)N[C@@H]1C[C@H](N)[C@@H](O[C@H]2O[C@H](CN)[C@@H](O)[C@H](O)[C@H]2O)[C@H](O)[C@H]1O[C@H]1O[C@H](CO)[C@@H](O)[C@H](N)[C@H]1O` [Amikacin, reference compound] has a zone of inhibition at 100 µM [1] of 22 mm, an Inhibition % [1] of 73% and an Inhibition % [2] of 73%. It also gave a zone of inhibition at 100 µM [2] of 22 mm, an Inhibition % [3] of 75% and a zone of inhibition at 100 µM [3] of 24 mm. For the same compound, the Inhibition % [4] was 70%, the zone of inhibition at 100 µM [4] was 20 mm and the Inhibition % [5] was 70%. For the same compound, the zone of inhibition at 100 µM [5] was 20 mm, the Inhibition % [6] was 70% and the zone of inhibition at 100 µM [6] was 20 mm. It also gave a zone of inhibition at 100 µM [7] of 20 mm and an Inhibition % [7] of 70%.
In the case of `C[C@@H]1[C@H](O)[C@@H](C)/C=C/C=C/C=C/C=C/C=C/C=C/C=C/[C@H](O[C@@H]2O[C@H](C)[C@@H](O)[C@H](N)[C@@H]2O)C[C@@H]2O[C@](O)(C[C@@H](O)C[C@@H](O)[C@H](O)CC[C@@H](O)C[C@@H](O)CC(=O)O[C@H]1C)C[C@H](O)[C@H]2C(=O)O` [Amphotericin B, reference compound], the Inhibition % [8] is reported as 60%, the zone of inhibition at 100 µM [8] is reported as 15 mm and the Inhibition % [9] is reported as 65%. For the same compound, the zone of inhibition at 100 µM [9] was 17 mm, the Inhibition % [10] was 65% and the zone of inhibition at 100 µM [10] was 17 mm.
In the case of `O=C1O[C@H]([C@@H](O)CO)C(O)=C1O` [Ascorbic acid, ascorbic acid, reference compound], the “% Inhibition, DPPH” value ([11]; 40 µM) is reported as 41.63%, the “% Inhibition, DPPH” value ([11]; 80 µM) is reported as 53.74% and the “% Inhibition, DPPH” value ([11]; 120 µM) is reported as 58.95%. For the same compound, the “% Inhibition, DPPH” value ([11]; 160 µM) was 70.86%, the “% Inhibition, DPPH” value ([11]; 200 µM) was 82.75% and the “% Inhibition, DPPH” value ([11]; 240 µM) was 85.65%. For the same compound, the IC50 [11] was 80 µM, the “% Inhibition, hydroxyl radical” value ([12]; 40 µM) was 20.73% and the “% Inhibition, hydroxyl radical” value ([12]; 80 µM) was 36.46%. The “% Inhibition, hydroxyl radical” value ([12]; 120 µM) was 47.87%, the “% Inhibition, hydroxyl radical” value ([12]; 160 µM) was 59.65% and the “% Inhibition, hydroxyl radical” value ([12]; 200 µM) was 65.64%. For the same compound, the “% Inhibition, hydroxyl radical” value ([12]; 240 µM) was 78.83%, the IC50 ([12]; read-out: IC50, hydroxyl radical inhibition) was 160 µM and the “% Inhibition, superoxide” value ([13]; 40 µM) was 29.64%. For the same compound, the “% Inhibition, superoxide” value ([13]; 80 µM) was 41.72%, the “% Inhibition, superoxide” value ([13]; 120 µM) was 55.63% and the “% Inhibition, superoxide” value ([13]; 160 µM) was 66.75%. For the same compound, the “% Inhibition, superoxide” value ([13]; 200 µM) was 72.55%, the “% Inhibition, superoxide” value ([13]; 240 µM) was 84.85% and the IC50 [13] was 120 µM. For the same compound, the “% Inhibition, nitric oxide” value ([14]; 40 µM) was 28.55%, the “% Inhibition, nitric oxide” value ([14]; 80 µM) was 35.75% and the “% Inhibition, nitric oxide” value ([14]; 120 µM) was 43.65%. The “% Inhibition, nitric oxide” value ([14]; 160 µM) was 52.68%, the “% Inhibition, nitric oxide” value ([14]; 200 µM) was 63.72% and the “% Inhibition, nitric oxide” value ([14]; 240 µM) was 72.73%.
With `N.N.[Cl][Pt][Cl]` [Cisplatin, cisplatin, reference compound] the IC50 [15] was 31.9 ± 1.6 µM, the IC50 [16] was 22.9 ± 1.1 µM and the IC50 [17] was 20.2 ± 1 µM. It also gave an IC50 [18] of 26.9 ± 1.3 µM.
For `CC[n+]1c(-c2ccccc2)c2cc(N)ccc2c2ccc(N)cc21` [EB, ethidium bromide, reference compound], the “Relative Specific Viscosity (η/η0)^1/3” value ([19]; R = [Complex]/[DNA] = 0.2) was 1.01, the “Relative Specific Viscosity (η/η0)^1/3” value ([19]; R = [Complex]/[DNA] = 0.4) was 1.35 and the “Relative Specific Viscosity (η/η0)^1/3” value ([19]; R = [Complex]/[DNA] = 0.6) was 1.63. The “Relative Specific Viscosity (η/η0)^1/3” value ([19]; R = [Complex]/[DNA] = 0.8) was 1.82, the “Relative Specific Viscosity (η/η0)^1/3” value ([19]; R = [Complex]/[DNA] = 1.0) was 1.99 and the “Slope of (η/η0)^1/3 vs [Compound]/[DNA]” value [19] was 1.2859. The “Slope of (η/η0)^1/3 vs [Compound]/[DNA]” value ([19]; listed as (EB)) was 1.286.
With `CC(=O)N1CCN(c2ccc(OCC3COC(Cn4ccnc4)(c4ccc(Cl)cc4Cl)O3)cc2)CC1` (stereo not drawn) [Ketoconazole, reference compound] the Inhibition % [8] was 63%, the zone of inhibition at 100 µM [8] was 16 mm and the Inhibition % [9] was 67%. For the same compound, the zone of inhibition at 100 µM [9] was 18 mm, the Inhibition % [10] was 67% and the zone of inhibition at 100 µM [10] was 18 mm.
For `[H]/N=C(/N)N[C@H]1[C@H](O)[C@@H](O)[C@H](O[C@@H]2O[C@@H](C)[C@](O)(C=O)[C@H]2O[C@@H]2O[C@@H](CO)[C@H](O)[C@@H](O)[C@@H]2NC)[C@@H](N/C(N)=N\[H])[C@@H]1O` [Streptomycin, reference compound], the zone of inhibition at 100 µM [1] was 26 mm, the Inhibition % [1] was 77% and the Inhibition % [2] was 75%. It also gave a zone of inhibition at 100 µM [2] of 24 mm, an Inhibition % [3] of 75% and a zone of inhibition at 100 µM [3] of 24 mm. It also gave an Inhibition % [4] of 71%, a zone of inhibition at 100 µM [4] of 21 mm and an Inhibition % [5] of 76%. It also gave a zone of inhibition at 100 µM [5] of 25 mm, an Inhibition % [6] of 71% and a zone of inhibition at 100 µM [6] of 21 mm. For the same compound, the zone of inhibition at 100 µM [7] was 21 mm and the Inhibition % [7] was 71%.

From article PMC9775322, “An Integrated Analysis of Mechanistic Insights into Biomolecular Interactions and Molecular Dynamics of Bio-Inspired Cu(II) and Zn(II) Complexes towards DNA/BSA/SARS-CoV-2 3CL^pro by Molecular Docking-Based Virtual Screening and FRET Detection” (Biomolecules, 2022)
